Reference: publication PMC12751012, “Nanoscale Direct-to-Biology Optimization and Structural Insights into Selective S. aureus TrmD Inhibitors” (Journal of Medicinal Chemistry, 2025)

Target: T1, S. aureus TrmD (Staphylococcus aureus, UniProt Q2FZ43)
T1 construct: made in house; host or cells: E. coli BL21
T1 sequence (Q2FZ43 1-245): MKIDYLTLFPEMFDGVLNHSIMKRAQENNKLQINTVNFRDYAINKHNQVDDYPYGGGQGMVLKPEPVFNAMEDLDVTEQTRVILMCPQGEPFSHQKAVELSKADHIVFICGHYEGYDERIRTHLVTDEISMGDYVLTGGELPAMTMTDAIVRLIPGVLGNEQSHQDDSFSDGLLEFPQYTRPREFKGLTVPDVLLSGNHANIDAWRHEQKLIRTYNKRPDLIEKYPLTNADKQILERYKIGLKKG
Assay: nanoSAR direct-to-biology FP displacement screening of crude triazoles
Type: binding
Settings: crude triazole at 1 μM, assuming full conversion; 500 nM TrmD, 10 nM tracer 4; read-out: % displaced tracer
Excerpt: Next, we conducted an S. aureus TrmD-targeting nanoSAR study. For this, alkyne 7 was reacted on a 96 nmol scale with an in-house diversity-oriented azide library (N = 320, mean pairwise Tanimoto similarity = 0.11) designed to cover a large chemical fragment space, generating a panel of 320 crude triazoles ready for FP assay investigation. The composition of the azide library is designed to be chemically diverse in several categories, including physicochemical properties such as polar surface area, lipophilicity, and the number of hydrogen bond donors and acceptors, as well as structural features like the number of aromatic rings (Figure S23). A complete list of chemical structures included in the azide library can be found in Table S4. In situ reaction conditions for CuAAC were adapted from Gehrtz et al., utilizing CuSO4, which is reduced in situ to Cu(I) by sodium ascorbate and stabilized by TBTA. Degassed water and DMSO (1:1) were used as solvents to prevent the oxidation from Cu(I) to Cu(II). For the synthesis of the triazole library, a master mix was prepared, containing all reaction components except the azides. All reactions were started by the addition of the respective azide in 24 μL at a final product concentration of 4 mM (96 nmol). Reaction mixtures were incubated for 16 h at room temperature and under an argon atmosphere in sealed 96-well plates.
For FP assay screening, we used 500 nM of S. aureus TrmD and 10 nM of tracer 4 in a total volume of 40 μL in 96-well plates. We performed control measurements and defined 10 nM of tracer 4 in buffer as 100% displacement and the DMSO control as 0% tracer displacement. […] The results of the FP screening were visualized in a waterfall plot and plate-based heatmaps (Figure , Figure S3).
Fluorescence polarization (FP) assays were performed as follows. The assays for H. influenzae TrmD have been described previously. All assays were conducted in technical triplicate using black 96-well half area plates. For the FP assays, a tracer (20 nM Cy5TPD for E. coli and H. influenzae TrmD, 10 nM tracer 4 for S. aureus TrmD) was mixed with the respective enzyme (2 μM E. coli TrmD, 2 μM H. influenzae TrmD, 500 nM S. aureus TrmD) in buffer (E. coli and H. influenzae TrmD: 50 mM HEPES, 500 mM NaCl, 5% Glycerol, pH 7.5, S. aureus TrmD: 40 mM Tris HCl, 100 mM NaCl, 10 mM MgCl2, 5% Glycerol, pH 7.5). The compounds were added in varying concentrations for K D-value determination. […] The Z-factor for tracer 4 was determined by measuring 48 replicates of the free tracer (positive controls, PC) and 48 replicates of a mixture of enzyme and tracer (negative controls, NC). The Z-factor is defined in terms of the means (μ) and standard deviations (σ) of the positive and negative controls and calculated as Z = 1–(3*(σnc + σpc)/(μnc–μpc)). […] Polarization values (mP) were determined from polarization-specific parallel and orthogonal fluorescence intensities. K D-values were calculated in GraphPad Prism 8.0.1 using the four-parameter Hill equation: y(% tracer bound) = bottom + ([ligand]-slope) × (top–bottom)/([ligand]-slope + K Dslope).
A commercial azide diversity library (Enamine) containing 320 azides at a concentration of 100 mM in DMSO in a 96-well tube rack was employed for this nanoSAR study. For the reaction of the azides with alkyne 7 via CuAAC, a master mix was prepared. […] The solvents were degassed with argon to avoid oxidation of the copper(I) during the reaction. To each well of a 96-well PCR plate (Applied Biosystems MicroAmp) were added 23 μL of the master mix and 1 μL of the 100 mM azide stock. The final concentrations in the Mastermix were: 8.7 mM sodium ascorbate (8.3 mM in reaction well), 1.1 mM TBTA (1.0 mM in reaction well), 4.3 mM 7 (4.1 mM in reaction well), 1.3 mM CuSO4×5 H2O (1.2 mM in reaction well).

With `COCc1cccc(-n2cc(-c3c[nH]c4nc[nH]c(=O)c34)nn2)c1` [Compound 01C07, O=C1NC=NC=2NC=C(C=3N=NN(c4cc(ccc4)COC)C3)C12] the inhibition at 1 µM was 17%.
`CN1CCN(CCn2cc(-c3c[nH]c4nc[nH]c(=O)c34)nn2)CC1` [Compound 03G10, O=C1NC=NC=2NC=C(C=3N=NN(C3)CC[N@H+]4CC[N@@H+](CC4)C)C12] was tested, and the inhibition at 1 µM was 11%.
`O=C(Cn1cc(-c2c[nH]c3nc[nH]c(=O)c23)nn1)N1CCCCC1` [Compound 02F02, O=C1NC=NC=2NC=C(C=3N=NN(C3)CC(=O)N4CCCCC4)C12] was tested, and the inhibition at 1 µM was 32%.
For `O=c1[nH]cnc2[nH]cc(-c3cn([C@H]4CCCNC4)nn3)c12` [Compound 01B01, O=C1NC=NC=2NC=C(C=3N=NN(C3)[C@@H]4C[NH2+]CCC4)C12], the inhibition at 1 µM was 29%.
`O=c1[nH]cnc2[nH]cc(-c3cn(Cc4cn5cccnc5n4)nn3)c12` [Compound 02C07, O=C1NC=NC=2NC=C(C=3N=NN(C3)CC=4N=C5N=CC=CN5C4)C12] was tested, and the inhibition at 1 µM was 82%.
`O=c1[nH]cnc2[nH]cc(-c3cn(CC[C@@H]4CCCC4(F)F)nn3)c12` [Compound 02D11, F[C@@]1(F)[C@H](CCN2N=NC(C=3C=4C(=O)NC=NC4NC3)=C2)CCC1] gave an inhibition at 1 µM of 75%.
For `COC(=O)c1cccc2nc(Cn3cc(-c4c[nH]c5nc[nH]c(=O)c45)nn3)cn12` [Compound 03F06, O=C(OC)C=1N2C(=NC(=C2)CN3N=NC(C=4C=5C(=O)NC=NC5NC4)=C3)C=CC1], the inhibition at 1 µM was 26%.
`O=c1[nH]cnc2[nH]cc(-c3cn([C@H](CC4CCCCC4)c4ncccn4)nn3)c12` [Compound 02G07, O=C1NC=NC=2NC=C(C=3N=NN(C3)[C@@H](c4ncccn4)CC5CCCCC5)C12] was tested, and the inhibition at 1 µM was 30%.
For `O=c1[nH]cnc2[nH]cc(-c3cn(CCCN4CCOCC4)nn3)c12` [Compound 03E09, O=C1NC=NC=2NC=C(C=3N=NN(C3)CCC[NH+]4CCOCC4)C12], the inhibition at 1 µM was 66%.
Work on `O=c1[nH]cnc2[nH]cc(-c3cn(CCF)nn3)c12` [Compound 01C05, FCCN1N=NC(C=2C=3C(=O)NC=NC3NC2)=C1] yielded an inhibition at 1 µM of 22%.
`Cc1nc2cc(-n3cc(-c4c[nH]c5nc[nH]c(=O)c45)nn3)ccc2[nH]1` [Compound 03G03, O=C1NC=NC=2NC=C(C=3N=NN(c4cc5N=C(Nc5cc4)C)C3)C12] was tested, and the inhibition at 1 µM was 21%.
For `O=c1[nH]cnc2[nH]cc(-c3cn(C[C@H]4COCCO4)nn3)c12` [Compound 03D10, O=C1NC=NC2=C1C(C3=CN(C[C@H]4COCCO4)N=N3)=CN2], the inhibition at 1 µM was 57%.
Compound `COC[C@H](O)Cn1cc(-c2c[nH]c3nc[nH]c(=O)c23)nn1` [Compound 02G06, O=C1NC=NC=2NC=C(C=3N=NN(C3)C[C@@H](O)COC)C12] has an inhibition at 1 µM of 13%.
`O=c1[nH]cnc2[nH]cc(-c3cn(C[C@H]4C[C@@H]5C[C@@H]5C4)nn3)c12` [Compound 03A08, O=C1NC=NC=2NC=C(C=3N=NN(C3)C[C@@H]4C[C@@H]5[C@@H](C5)C4)C12] showed an inhibition at 1 µM of 76%.
In the case of `COc1cccc(C2(n3cc(-c4c[nH]c5nc[nH]c(=O)c45)nn3)CCC2)c1` [Compound 01A12, O=C1NC=NC=2NC=C(C=3N=NN(C3)C4(c5cc(OC)ccc5)CCC4)C12], the inhibition at 1 µM is reported as 10%.
`O=c1[nH]cnc2[nH]cc(-c3cn(-c4ccnc(CO)c4)nn3)c12` [Compound 02D08, O=C1NC=NC=2NC=C(C=3N=NN(c4cc(ncc4)CO)C3)C12] gave an inhibition at 1 µM of 25%.
`CC(F)(F)c1cccc(Cn2cc(-c3c[nH]c4nc[nH]c(=O)c34)nn2)n1` [Compound 01H01, FC(F)(c1nc(ccc1)CN2N=NC(C=3C=4C(=O)NC=NC4NC3)=C2)C] gave an inhibition at 1 µM of 63%.
Compound `CC(C)(C)OC(=O)N[C@@]12CC[C@@H](C[C@H]1n1cc(-c3c[nH]c4nc[nH]c(=O)c34)nn1)C2` [Compound 02G08, O=C(OC(C)(C)C)N[C@@]12[C@H](N3N=NC(C=4C=5C(=O)NC=NC5NC4)=C3)C[C@@H](C1)CC2] has an inhibition at 1 µM of 12%.
`COC(=O)c1cnoc1Cn1cc(-c2c[nH]c3nc[nH]c(=O)c23)nn1` [Compound 01D12, O=C(OC)C1=C(ON=C1)CN2N=NC(C=3C=4C(=O)NC=NC4NC3)=C2] showed an inhibition at 1 µM of 38%.
In the case of `N#CCCCn1cc(-c2c[nH]c3nc[nH]c(=O)c23)nn1` [Compound 02E02, O=C1NC=NC=2NC=C(C=3N=NN(C3)CCCC#N)C12], the inhibition at 1 µM is reported as 35%.
In the case of `COc1ccc(C(F)(F)F)cc1-n1cc(-c2c[nH]c3nc[nH]c(=O)c23)nn1` [Compound 02A04, FC(F)(F)c1cc(N2N=NC(C=3C=4C(=O)NC=NC4NC3)=C2)c(OC)cc1], the inhibition at 1 µM is reported as 20%.
Compound `O=c1[nH]cnc2[nH]cc(-c3cn(-c4ccc(C(F)(F)F)cc4)nn3)c12` [Compound 03B09, FC(F)(F)c1ccc(N2N=NC(C=3C=4C(=O)NC=NC4NC3)=C2)cc1] has an inhibition at 1 µM of 15%.
`Nc1ccc(-n2cc(-c3c[nH]c4nc[nH]c(=O)c34)nn2)cc1` [Compound 03D05, O=C1NC=NC=2NC=C(C=3N=NN(c4ccc(N)cc4)C3)C12] was tested, and the inhibition at 1 µM was 2.34%.
For `NCCCn1cc(-c2c[nH]c3nc[nH]c(=O)c23)nn1` [Compound 03E10, O=C1NC=NC=2NC=C(C=3N=NN(C3)CCC[NH3+])C12], the inhibition at 1 µM was 68%.
`CN(C)[C@@H]1CCN(CCn2cc(-c3c[nH]c4nc[nH]c(=O)c34)nn2)C1` [Compound 03E03, O=C1NC=NC=2NC=C(C=3N=NN(C3)CC[N@@H+]4C[C@H]([NH+](C)C)CC4)C12] was tested, and the inhibition at 1 µM was 40%.
`O=C1NCCCC[C@H]1n1cc(-c2c[nH]c3nc[nH]c(=O)c23)nn1` [Compound 03A05, O=C1NC=NC=2NC=C(C=3N=NN(C3)[C@H]4C(=O)NCCCC4)C12] was tested, and the inhibition at 1 µM was 40%.
`O=c1[nH]cnc2[nH]cc(-c3cn(CCN4CCCC4)nn3)c12` [Compound 01A04, O=C1NC=NC=2NC=C(C=3N=NN(C3)CC[NH+]4CCCC4)C12] was tested, and the inhibition at 1 µM was 22%.
Work on `N[C@H]1C[C@@H](n2cc(-c3c[nH]c4nc[nH]c(=O)c34)nn2)C1` [Compound 02G12, O=C1NC=NC=2NC=C(C=3N=NN(C3)[C@@H]4C[C@H]([NH3+])C4)C12] yielded an inhibition at 1 µM of 31%.
`CCN(CC)C(=O)Cn1cc(-c2c[nH]c3nc[nH]c(=O)c23)nn1` [Compound 01C10, O=C1NC=NC=2NC=C(C=3N=NN(C3)CC(=O)N(CC)CC)C12] gave an inhibition at 1 µM of 25%.
In the case of `O=C1NC[C@@H](Cn2cc(-c3c[nH]c4nc[nH]c(=O)c34)nn2)O1` [Compound 02F04, O=C1O[C@H](CN2N=NC(C=3C=4C(=O)NC=NC4NC3)=C2)CN1], the inhibition at 1 µM is reported as 45%.
Work on `CS(=O)(=O)NC(=O)Cn1cc(-c2c[nH]c3nc[nH]c(=O)c23)nn1` [Compound 01G12, S(=O)(=O)(NC(=O)CN1N=NC(C=2C=3C(=O)NC=NC3NC2)=C1)C] yielded an inhibition at 1 µM of 27%.
For `O=c1[nH]cnc2[nH]cc(-c3cn([C@@H]4CCc5c(F)cccc54)nn3)c12` [Compound 03H04, Fc1c2c(ccc1)[C@H](N3N=NC(C=4C=5C(=O)NC=NC5NC4)=C3)CC2], the inhibition at 1 µM was 68%.
With `O=c1[nH]cnc2[nH]cc(-c3cn(-c4cccc5c4CCCC5)nn3)c12` [Compound 02A11, O=C1NC=NC=2NC=C(C=3N=NN(c4c5c(ccc4)CCCC5)C3)C12] the inhibition at 1 µM was 14%.
For `Cc1ccc(O)c(Cn2cc(-c3c[nH]c4nc[nH]c(=O)c34)nn2)n1` [Compound 02C01, O=C1NC=NC=2NC=C(C=3N=NN(C3)Cc4nc(ccc4O)C)C12], the inhibition at 1 µM was 32%.
